Here are results for five compounds from patent US5116995A, “Carbazole compounds” (Taisho Pharmaceutical Co., Ltd., priority 1990, dated 1992).

Assay [1] deals with sigma receptor (Rattus norvegicus, UniProt Q9R0C9). The assay is described as follows: biochemical.
Assay [2] deals with phencyclidine receptor. The note with it: rimcazole value from literature (vol. 155, page 345 (1988)); cited from earlier work.
Assay [3] concerns the target D2 receptor. The settings on record: rimcazole value from literature (vol. 155, page 345 (1988)), [3H]spiporone binding; cited from earlier work.
Assay [4] relates to sigma receptor. The note with it: cited from earlier work.
The subject of assay [5] is methamphetamine induced hyperlocomotion. The assay is described as follows: inhibition of Methamphetamine induced Hyperlocomotion. The format is in vivo, mouse (male ICR). The note with it: mice, test drug 50 mg/kg i.p., 35 min before methamphetamine 1 mg/kg i.p.; measured for 30 min from 15 min later; **P < 0.01 (Dunnett's test). On the procedure:
Thirty male ICR mice weighing 20 to 35 g were used for each group (5 animals per test, and 6 tests). Mice were placed in the measuring cages, adapted for 60 minutes, and given intraperitoneally the test drugs in Table 1 suspended in 5% gum arabic solution in a dose of 50 mg/kg (0.1 ml/10 g of the body weight). Thirty-five minutes later, methamphetamine dissolved in physiological saline solution was given intraperitoneally in a dose of 1 mg/kg. Fifteen minutes later, the locomotor content was measured for 30 minutes using an Animex apparatus. Control group was given 5% gum arabic only in a similar manner, and […] for measurement. Results are expressed as percentage to control group in Table 2.

For assay [6], the target named is D2 receptor (Rattus norvegicus, UniProt P61169). The assay is described as follows: Receptor Binding Test: (-)-[3H]sulpiride binding, rat striatal membranes.
Assay [7] deals with phencyclidine receptor. The assay is described as follows: Receptor Binding Test: [3H]phencyclidine binding, rat whole brain membranes. Details: species or system rat (male Wistar). The note with it: rat whole brain membrane, 5 mM Tris-HCl pH 7.7, 25° C., 2 hours. From the text: 32, page 820 (1987), respectively.

Like-named read-outs stand apart in the source and are kept apart here. Bounds are passed on as bounds.

Chain of sigma receptor (Rattus norvegicus, UniProt Q9R0C9) (Q9R0C9 whole entry): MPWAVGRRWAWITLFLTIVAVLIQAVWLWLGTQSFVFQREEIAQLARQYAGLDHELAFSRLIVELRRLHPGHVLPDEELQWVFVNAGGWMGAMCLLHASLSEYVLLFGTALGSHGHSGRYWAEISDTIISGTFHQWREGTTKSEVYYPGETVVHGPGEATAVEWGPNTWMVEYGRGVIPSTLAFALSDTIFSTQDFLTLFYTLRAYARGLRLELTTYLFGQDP
Chain of D2 receptor (Rattus norvegicus, UniProt P61169) (P61169 whole entry): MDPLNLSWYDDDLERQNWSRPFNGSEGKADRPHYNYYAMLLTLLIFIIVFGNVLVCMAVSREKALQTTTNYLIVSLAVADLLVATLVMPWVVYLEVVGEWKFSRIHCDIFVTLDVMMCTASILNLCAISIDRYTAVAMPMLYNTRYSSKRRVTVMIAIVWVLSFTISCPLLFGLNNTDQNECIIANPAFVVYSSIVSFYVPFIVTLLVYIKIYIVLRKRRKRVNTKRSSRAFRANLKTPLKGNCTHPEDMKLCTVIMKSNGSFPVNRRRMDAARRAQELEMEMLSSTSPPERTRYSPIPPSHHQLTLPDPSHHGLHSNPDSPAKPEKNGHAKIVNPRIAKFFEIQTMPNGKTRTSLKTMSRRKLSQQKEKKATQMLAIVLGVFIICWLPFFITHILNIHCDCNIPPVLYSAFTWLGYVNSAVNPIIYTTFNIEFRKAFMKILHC

In assay [1], `CCCN1CCCC(c2cccc(O)c2)C1` (single isomer, unassigned) [3-PPP, 3-(3-hydroxy-phenyl)-N-n-propylpiperidine, reference compound] registered an IC50 of 0.0243 ± 0.0029 µM.

Turning to `C[C@@H]1CN(CCCn2c3ccccc3c3ccccc32)C[C@H](C)N1` [Rimcazole], the half-inhibitory concentration (IC50) was over 2000 µM in assay [2]; 86 µM in assay [3]; 1.46 ± 0.235 µM in assay [4] (rimcazole value from literature (vol. 155, page 345 (1988))). Besides, the “affinity and specificity for sigma receptor” value in assay [4] (prior art statement) is given as “not sufficient”. Also, the “locomotor count, % to control group” value in assay [5] came out at 51.4%.

Take `CCCN(CCC)Cc1cccc2[nH]c3ccccc3c12.Cl` [Test drug A, 4-(di-n-propylaminomethyl)carbazole hydrochloride]: the IC50 was 44.3 µM in assay [6], over 10 µM in assay [7] and 0.891 ± 0.0128 µM in assay [1]. The “locomotor count, % to control group” value in assay [5] came out at 39.7%.

Consider `CCCN(CCC)Cc1cccc2[nH]c3c(C)ccc(C)c3c12.Cl` [Test drug B, 5,8-dimethyl-4-(di-n-propylaminomethyl)carbazole hydrochloride], for which the IC50 was 23.2 µM in assay [6], over 10 µM in assay [7] and 1.02 ± 0.131 µM in assay [1]. Further, the “locomotor count, % to control group” value in assay [5] came to 46.6%.

In the case of `CCCN(CCC)CCc1cccc2[nH]c3c(C)ccc(C)c3c12.Cl` [Test drug C, 5,8-dimethyl-4-(2-di-n-propylaminoethyl)carbazole hydrochloride], the values for the IC50 in assay [6], in assay [7] and in assay [1] were 14.3 µM, over 10 µM and 0.0048 ± 0.001 µM, respectively. Moreover, in assay [5], the “locomotor count, % to control group” value is 35.3%.
